Series [1] in a line: Phytoxicity against Hordeum vulgare (barley) assessed as growth inhibition at 125 g/ha after 3 weeks relative to control. Format: organism-based. To be noted: in vivo, read-out: GI.
In the next series the test system is Alopecurus myosuroides. Nature of the series: Herbicidal activity against Alopecurus myosuroides assessed as growth inhibition at 125 g/ha after 3 weeks relative to control. Format: functional. The conditions noted are these: 504 h, read-out: GI.
A further series deals with Echinochloa crus-galli. In words: Herbicidal activity against Echinochloa crus-galli (barnyard grass) assessed as growth inhibition at 125 g/ha after 3 weeks relative to control. Format: functional. To be noted: 504 h, read-out: GI.
Series [2] is described as follows: Phytotoxicity against Triticum aestivum (wheat) assessed as growth inhibition at 125 g/ha after 3 weeks relative to control. Format: organism-based. To be noted: in vivo, read-out: GI.
In a further series the test system is Avena fatua. In words: Herbicidal activity against Avena fatua assessed as growth inhibition at 125 g/ha after 3 weeks relative to control. Type of series: functional. The conditions noted are these: 504 h, read-out: GI.

The structures appear in SMILES notation.

As for `COC(=O)[C@@H](C)Oc1ccc(Oc2ncc(Cl)cc2F)cc1`, the values for the inhibition at 504 h in series [1] and in series [2] were 35% and 10%, respectively. Moreover, the results for the inhibition of growth at 125 g/ha in the series on Alopecurus myosuroides, in the series with Echinochloa crus-galli and in the series with Avena fatua were 75%, 80% and 90%, respectively.
With `COC(=O)[C@@H](C)Oc1ccc(OC(=O)[C@@H](C)Oc2ccc(Oc3ncc(Cl)cc3F)cc2)cc1`, the inhibition at 504 h came out at 10% in series [1] and 0% in series [2]. Also, the results for the inhibition of growth at 125 g/ha in the series with Alopecurus myosuroides, with Echinochloa crus-galli and in the series on Avena fatua were 80%, 80% and 90%, respectively.
For the compound `CCOC(=O)[C@@H](C)Oc1ccc(Oc2ncc(Cl)cc2F)cc1`, the inhibition at 504 h in series [1] worked out at 27%; in series [2] it was 5%. In addition, the inhibition of growth at 125 g/ha stood at 82% in the series with Alopecurus myosuroides, 75% in the series on Echinochloa crus-galli and 90% in the series on Avena fatua.
For `CCOC(=O)[C@@H](C)Oc1ccc(OC(=O)[C@@H](C)Oc2ccc(Oc3ncc(Cl)cc3F)cc2)cc1`, the inhibition at 504 h was determined as 10% in series [1] and 0% in series [2]. Further, the inhibition of growth at 125 g/ha amounted to 90% in the series with Alopecurus myosuroides, 80% with Echinochloa crus-galli and 93% in the series with Avena fatua.
Consider `CCCOC(=O)[C@@H](C)Oc1ccc(Oc2ncc(Cl)cc2F)cc1`, for which the values for the inhibition at 504 h in series [1] and in series [2] were 35% and 10%, respectively. In addition, the values for the inhibition of growth at 125 g/ha with Alopecurus myosuroides, with Echinochloa crus-galli and in the series on Avena fatua were 76%, 62% and 84%, respectively.
In the same order, the values of `CCCOC(=O)[C@@H](C)Oc1ccc(OC(=O)[C@@H](C)Oc2ccc(Oc3ncc(Cl)cc3F)cc2)cc1` are 15%, 0%, 79%, 70% and 89%.
In the case of `CC(C)OC(=O)[C@@H](C)Oc1ccc(Oc2ncc(Cl)cc2F)cc1`, the inhibition at 504 h in series [1] was 30%; in series [2], 10%. Besides, the values for the inhibition of growth at 125 g/ha in the series on Alopecurus myosuroides, in the series with Echinochloa crus-galli and in the series with Avena fatua were 73%, 57% and 81%, respectively.
Turning to `CC(C)OC(=O)[C@@H](C)Oc1ccc(OC(=O)[C@@H](C)Oc2ccc(Oc3ncc(Cl)cc3F)cc2)cc1`, the inhibition at 504 h in series [1] was determined as 12%; in series [2] it was 0%. Also, the inhibition of growth at 125 g/ha is 78% with Alopecurus myosuroides, 65% in the series on Echinochloa crus-galli and 85% in the series with Avena fatua.
In the same order, the values of `CCCCOC(=O)[C@@H](C)Oc1ccc(Oc2ncc(Cl)cc2F)cc1` are 25%, 15%, 54%, 55% and 62%.
Turning to `CCCCOC(=O)[C@@H](C)Oc1ccc(OC(=O)[C@@H](C)Oc2ccc(Oc3ncc(Cl)cc3F)cc2)cc1`, the figures for the inhibition at 504 h in series [1] and in series [2] were 10% and 5%, respectively. In addition, the inhibition of growth at 125 g/ha came out at 62% with Alopecurus myosuroides, 54% in the series on Echinochloa crus-galli and 63% with Avena fatua.
`C#CCOC(=O)[C@@H](C)Oc1ccc(OC(=O)[C@@H](C)Oc2ccc(Oc3ncc(Cl)cc3F)cc2)cc1`: the inhibition at 504 h in series [1] and in series [2] was 0% in each case. Moreover, the inhibition of growth at 125 g/ha with Alopecurus myosuroides was found to be 100%; in the series with Echinochloa crus-galli it was 92%; with Avena fatua it was 100%.
For the compound `COC(=O)[C@@H](C)Oc1ccc(Oc2ncc(Cl)cc2Cl)cc1`, the inhibition at 504 h in series [1] was 30%; in series [2], 10%. Besides, the inhibition of growth at 125 g/ha in the series on Alopecurus myosuroides is 30%; with Echinochloa crus-galli it was 40%; in the series with Avena fatua it was 30%.
Turning to `COC(=O)[C@@H](C)Oc1ccc(OC(=O)[C@@H](C)Oc2ccc(Oc3ncc(Cl)cc3Cl)cc2)cc1`, the inhibition at 504 h in series [1] is 15%; in series [2], 0%. Also, the inhibition of growth at 125 g/ha in the series with Alopecurus myosuroides was found to be 42%; with Echinochloa crus-galli it was 44%; with Avena fatua, 43%.
As to `CCOC(=O)[C@@H](C)Oc1ccc(Oc2ncc(Cl)cc2Cl)cc1`, the values for the inhibition at 504 h in series [1] and in series [2] were 25% and 10%, respectively. Moreover, the figures for the inhibition of growth at 125 g/ha in the series with Alopecurus myosuroides, in the series with Echinochloa crus-galli and in the series on Avena fatua were 45%, 51% and 50%, respectively.
As to `CCOC(=O)[C@@H](C)Oc1ccc(OC(=O)[C@@H](C)Oc2ccc(Oc3ncc(Cl)cc3Cl)cc2)cc1`, the inhibition at 504 h in series [1] was determined as 15%; in series [2], 0%. Besides, the figures for the inhibition of growth at 125 g/ha with Alopecurus myosuroides, in the series on Echinochloa crus-galli and with Avena fatua were 52%, 54% and 54%, respectively.
As for `CCCOC(=O)[C@@H](C)Oc1ccc(Oc2ncc(Cl)cc2Cl)cc1`, the inhibition at 504 h in series [1] was 18%; in series [2], 15%. In addition, the inhibition of growth at 125 g/ha in the series with Alopecurus myosuroides was 35%; in the series on Echinochloa crus-galli it was 40%; with Avena fatua, 45%.
For the compound `CCCOC(=O)[C@@H](C)Oc1ccc(OC(=O)[C@@H](C)Oc2ccc(Oc3ncc(Cl)cc3Cl)cc2)cc1`, the inhibition at 504 h in series [1] amounted to 10%; in series [2], 0%. Also, the figures for the inhibition of growth at 125 g/ha with Alopecurus myosuroides, in the series on Echinochloa crus-galli and in the series with Avena fatua were 36%, 45% and 50%, respectively.
Take `C#CCOC(=O)[C@@H](C)Oc1ccc(Oc2ncc(Cl)cc2Cl)cc1`: the inhibition at 504 h in series [1] worked out at 20%; in series [2], 0%. Also, the values for the inhibition of growth at 125 g/ha in the series on Alopecurus myosuroides, in the series with Echinochloa crus-galli and in the series with Avena fatua were 57%, 45% and 47%, respectively.
With `C#CCOC(=O)[C@@H](C)Oc1ccc(OC(=O)[C@@H](C)Oc2ccc(Oc3ncc(Cl)cc3Cl)cc2)cc1`, the inhibition at 504 h in series [1] was determined as 5%; in series [2] it was 0%. For the same compound, the inhibition of growth at 125 g/ha in the series with Alopecurus myosuroides came out at 60%; in the series with Echinochloa crus-galli it was 53%; in the series on Avena fatua it was 50%.
Turning to `C#CCOC(=O)[C@@H](C)Oc1ccc(Oc2ncc(Cl)cc2F)cc1` [CLODINAFOP PROPARGYL], the values for the inhibition at 504 h in series [1] and in series [2] were 20% and 0%, respectively. The figures for the inhibition of growth at 125 g/ha in the series on Alopecurus myosuroides, in the series with Echinochloa crus-galli and in the series on Avena fatua were 88%, 82% and 95%, respectively.

(Values after ChEMBL document CHEMBL3046845, “A facile synthesis of novel optically active R,R-2-(4-(2-(4-(5-chloro-3-halo-pyridin-2-yloxy)-phenoxy)-propionyloxy)-phenoxy)-propionic acid esters using cyanuric chloride as potential herbicide” (Chin Chem Lett, 2011).)
